Test results as given in patent publication US20060264418A1, “6-(2,2,2-Trifluoroethylamino-7-chloro-2,3,4,5-tetrahydro-1h-benzo[d] azephine as a 5-ht2c receptor agonist” (priority 2003, published 2006).

How the values were obtained:
[1] = target: alpha 1 adrenergic receptor; assay: Radioligand receptor binding assay, alpha 1 adrenergic
[2] = test system: male Long-Evans rats; assay: Calorimetric acute feeding assay; format: in vivo, rat; conditions: oral dose
Source text: (§1) Animals: Obtain male Long-Evans rats (Harlan Sprague-Dawley, Indianapolis, Ind.) that are approximately one hundred-days old and have been maintained on a calorie rich diet since weaning (TD 95217, 40% calories from fat; Teklad, Madison, Wis.). House the rats individually with a 12 hr.:12 hr. light:dark cycle (lights on from about 22:00 hr. to about 10:00 hr.) and maintain rats on the same diet (TD 95217) with free access to water, for about 1-2 weeks to acclimate the rats to the environment. Dose rats orally with vehicle (10% acacia with 0.15% saccharin in water) once daily for at least 1 day (typically 1-2 days) to acclimate the rats to the procedures. Randomize the rats into groups so each group has similar mean body weights.
Calorimetric Acute Feeding Assay: At approximately 8:00 hr. on the day of assay, weigh each rat and transfer to individual chambers of an open circuit calorimetry system (Oxymax, Columbus Instruments International Corporation; Columbus, Ohio), with free access to food (pre-weighed) and water, and begin measuring VO2 and VCO2. At approximately 10:00 hr., dose rats orally with vehicle or test compound, return them to their calorimetry chambers, and continue measuring VO2 and VCO2 at regular time intervals (approximately hourly). At approximately 8:00 hr. the following day, measure rat body weight and the remaining food, assuming the difference in weight of food is equal to the mass of food consumed. Calculate the 24 hr. energy expenditure (EE) and respiratory quotient (RQ) essentially as described in Chen, Y. and Heiman, M. L., Regulatory Peptide, 92:113-119 (2000). […]
Calculate EE as the product of calorific value (CV) and VO2 per body weight (kg); where CV=3.815+1.232*RQ, and RQ is the ratio of CO2 produced (VCO2) to O2 consumed (VO2). Caloric intake is calculated as (mass of 24 hr. food intake in grams)×(physiological fuel value of the diet in kilocalorie/g) per kg of body weight.

[3] = test system: Wistar rats; assay: Schedule-induced polydipsia; format: in vivo, rat
Source text: Food-deprived rats exposed to intermittent presentations of food will drink amounts of water that are far in excess of their normal daily intake and in excess of their intake when given all of their food at one time (Falk J L. “Production of polydipsia in normal rats by an intermittent food schedule”, Science 133: 195-196, (1961)). This excessive behavior is persistent and has been used to model OCD.
Maintain Wistar rats on a food restricted diet (to maintain 85% free feeding weight), but with free access to water. Train the rats in a behavioral testing chamber to press a lever to receive a food pellet under a fixed interval schedule, such that the rats are rewarded with a 45 mg food pellet the first time they press a lever after a 120 second interval has elapsed. The fixed interval is then reset to 120 seconds and the process repeated. Thus, during a 90 min. test session, the rats can earn a maximum of 45 pellets. The behavioral chamber is also equipped with a water bottle that is weighed before and after the session to determine the amount of water consumed.
Administer test compounds on Tuesdays and Fridays. Determine control day performances on Thursdays. Administer compounds either orally at 60 min. before the beginning of a test session, or subcutaneously at 20 min. before the beginning of a test session. Compare the rates of lever pressing and water consumption for each animal's performance during sessions after test compound treatment with that animal's performance during control sessions, expressed as a percent of the control rate. Average the individual percent of control rates for each dose and calculate the standard error of the mean.
The in vivo efficacy of 5HT2C compounds at the 5HT2C receptor was confirmed by the prevention of effects of the 5HT2C agonists on excessive drinking by co-administration of the 5HT2C receptor antagonist, 6-chloro-5-methyl-N-(2-(2-methylpyridin-3-yl-oxy)pyridin-5-yl)aminocarbonyl)-2,3-dihydroindole.

[4] = test system: male Long-Evans rats; assay: Chronic feeding assay; format: in vivo, rat
Source text: as §1
Chronic Feeding Assay: At between approximately 8:00 hr. and 10:00 hr. on day one of the assay, weigh and orally dose each rat with vehicle or test compound and return the animal to its home cage, with free access to food (pre-weighed) and water. For each of days 2-15, at between approximately 8:00 hr. and 10:00 hr., measure rat body weight and the weight of food consumed in the last 24 hr. period, and administer daily oral dose of test compound or vehicle. On days −2 and 15 measure total fat mass and lean mass by nuclear magnetic resonance (NMR) using an EchoMRI™ system (Echo Medical Systems, Houston Tex.). (See Frank C. Tinsley, Gersh Z. Taicher, and Mark L. Heiman, “Evaluation of a New Quantitative Magnetic Resonance (QMR) Method for Mouse Whole Body Composition Analysis”, Obesity Research, submitted May 1, 2003.)

[5] = target: alpha 2 adrenergic receptor; assay: Radioligand receptor binding assay, alpha 2 adrenergic
[6] = test system: male NIH Swiss mice; assay: Nestlet shredding; format: in vivo, mouse; conditions: 30 min.
Source text: Mice naturally will construct nests of material available in their living environment. Since this behavior is obsessive in nature, it has been used to model OCD (Mia Li, Denise Morrow and Jeffrey M. Witkin, “Decreases in nestlet shredding of mice by serotonin uptake inhibitors: comparison with marble burying”, Psychopharmacology, submitted Jul. 14, 2003). House experimentally-naïve male, NIH Swiss mice (Harlan Sprague-Dawley, Indianapolis, Ind.) weighing between 28-35 g in groups of 12 for at least three days prior to testing in a vivarium with a 12 hr. light/dark cycle. Conduct experiments during the light cycle in an experimental room with normal overhead fluorescent lighting. Dose mice with vehicle or test compound and after a specified pretreatment interval (generally 30 min.), place the mice individually in a 17×28×12 cm high plastic tub with about 5 mm sawdust shavings on the floor along with a pre-weighed multi-ply gauze pad (51 mm square). After 30 min., weigh the remainder of the gauze pad not removed by the mouse. Determine the weight of the gauze used for nestlet construction by subtraction. Compare the results for test compound treated mice to the results for vehicle control treated mice with Dunnett's test.
Clinically effective OCD treatment standard compounds suppress nestlet shredding at doses that are devoid of motor-impairing effects as measured by the rotorod test. […]

[7] = daily oral dose days 1-15, compared to control animals

SMILES: FC(F)(F)CNc1c(Cl)ccc2c1CCNCC2.O=C(O)CCC(=O)O [Example 2, 7-Chloro-6-(2,2,2-trifluoroethylamino)-2,3,4,5-tetrahydro-1H-benzo[d]azepine Succinic Acid Salt]
- IC50 [1]: > 3 µM
- 24 hr. food intake ([2]; acute assays, rats on calorie rich diet): significantly reduce 24 hr. food intake
- respiratory quotient (RQ) ([2]; acute, 24 hr. calorimetry): dose-dependently reduced RQ
- energy expenditure during the light photoperiod ([2]; acute, indicative of resting metabolic rate): without significantly changing
- schedule-induced polydipsia (excessive drinking) ([3]; food restricted rats, 90 min. test session): suppress schedule-induced polydipsia without producing notable changes in motor patterns, food intake, or behavior the following day
- suppression of excessive drinking with co-administration of the 5-HT2C receptor antagonist ([3]; rats): blocked
- lean body mass ([4]; NMR, days -2 and 15): not changed
- cumulative body weight change [4, 7]: significantly decrease
- cumulative food intake [4, 7]: significantly decrease
- source of the decrease in body weight (fat mass by NMR) ([4]; days -2 and 15): loss of adipose tissue
- IC50 [5]: > 3 µM
- nestlet shredding (relative to motor effects, rotorod test) [6]: suppress nestlet shredding at doses that were devoid of motor-impairing effects
